Like-named read-outs stand apart in the source and are kept apart here.
Key:
[1] = system: human lung cancer strain NCI-H441; experiment: NCI-H441 cell proliferation inhibitory activity (CellTiter-Glo, 4 days); assay type: cell-based; conditions: read-out: NCl-H441 IC50
Outline: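 Signal came from […] measured per well once the reagent was added. Beforehand, cells were cultured at 37°C and 5% carbon dioxide on a compound series serially diluted in dimethyl sulfoxide.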

[2] = target: GDP-bound NRAS wild-type protein (Homo sapiens, UniProt P01111); experiment: Binding to NRAS by surface plasmon resonance (SPR), KD and KD ratio to KRAS
Sequence of GDP-bound NRAS wild-type protein (P01111 whole entry): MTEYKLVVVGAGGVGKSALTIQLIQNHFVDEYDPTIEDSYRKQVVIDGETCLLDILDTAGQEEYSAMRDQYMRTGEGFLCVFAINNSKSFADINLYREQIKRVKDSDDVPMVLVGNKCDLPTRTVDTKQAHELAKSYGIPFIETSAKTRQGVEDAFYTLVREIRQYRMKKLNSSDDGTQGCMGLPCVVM
Outline: (§1)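 Measured at 30°C: SPR with GDP-loaded, E. coli-expressed biotin-Avi RAS captured (~100–300 RU), ascending 75 s compound injections, HBS pH 7.4 with GDP, MgCl2, 4% DMSO. KD from 1:1 fit.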

[3] = target: GDP-bound KRAS wild-type protein (Homo sapiens, UniProt P01116); experiment: Binding to KRAS by surface plasmon resonance (SPR), dissociation constant KD
Sequence of GDP-bound KRAS wild-type protein (P01116 1-188 isoform P01116-2): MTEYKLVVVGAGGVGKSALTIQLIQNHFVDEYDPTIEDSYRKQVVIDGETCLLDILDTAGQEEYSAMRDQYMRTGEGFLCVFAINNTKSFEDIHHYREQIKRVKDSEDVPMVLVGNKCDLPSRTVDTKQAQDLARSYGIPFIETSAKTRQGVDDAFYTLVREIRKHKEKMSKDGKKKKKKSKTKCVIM
Outline: as §1

HRAS wild-type protein = HRAS wild-type protein (Homo sapiens, UniProt P01112); experiment: Binding to HRAS by surface plasmon resonance (SPR), KD and KD ratio to KRAS
Sequence of HRAS wild-type protein (P01112 whole entry): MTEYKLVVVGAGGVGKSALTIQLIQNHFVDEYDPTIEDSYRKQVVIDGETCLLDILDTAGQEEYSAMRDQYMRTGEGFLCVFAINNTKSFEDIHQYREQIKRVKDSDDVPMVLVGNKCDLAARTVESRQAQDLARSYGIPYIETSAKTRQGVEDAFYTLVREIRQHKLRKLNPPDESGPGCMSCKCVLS
Outline: as §1

[4] = ratio of KD for GDP-bound NRAS wild-type protein to KD for KRAS
[5] = ratio of KD for HRAS wild-type protein to KD for KRAS
[6] = 50% proliferation inhibitory concentration, four days
[7] = ratio of KD with respect to GDP-bound NRAS wild-type protein to KD with respect to KRAS
[8] = Single Cycle Kinetics, 1:1 binding model
[9] = ratio of KD with respect to HRAS wild-type protein to KD with respect to KRAS

Row | Structure (SMILES) | IC50 ([1]; NCI-H441 cells, 4 days) [nM] | NRAS /KRAS [2, 4] | Kd ([3]; 1:1 binding model) [nM] | HRAS /KRAS (HRAS wild-type protein; [5]) | Kd ([3]; Single Cycle Kinetics) [nM] | IC50 [1, 6] [nM] | NRAS /KRAS [2, 7] | Kd [3, 8] [nM] | HRAS /KRAS (HRAS wild-type protein; [9])
1 | CCC[C@H]1C(=O)N[C@@H](CC(C)C)C(=O)N(CC)CC(=O)N(C)[C@H]2C/C=C\CCN(C2=O)[C@@H](Cc2ccc(C)cc2)C(=O)N(C)CC(=O)N[C@@H](CCc2cc(F)c(C(F)(F)F)c(F)c2)C(=O)N2C[C@H](OCC)C[C@H]2C(=O)NC2(CCC2)C(=O)N(C)[C@@H](C2CCCC2)C(=O)N(C)[C@H](C(=O)N(C)C)CC(=O)N1C [PP2539] | 330 | A (a compound having 10 or more and less than 20 is denoted as A) | 4.3 | B (a compound having 3 or more and less than 10 is denoted as B) |  |  |  |  | 
2 | CC[C@H](C)[C@@H]1NC(=O)[C@H](COC)N(C)C(=O)C[C@@H](C(=O)N(C)C)N(C)C(=O)[C@H](C2CCCCC2)N(C)C(=O)C2(CC(C)(C)C2)NC(=O)[C@@H]2C[C@@H](OC(C)C)CN2C(=O)[C@H](CCc2ccc(Cl)c(Cl)c2)NC(=O)CN(C)C(=O)[C@H](Cc2ccc(C(F)(F)F)cc2)N2CC/C=C\C[C@@H](C2=O)N(C)C(=O)CN(C)C1=O [PP2662] | 13.1 | AA (a compound having 20 or more is denoted as AA) | 0.29 | A (a compound having 10 or more and less than 20 is denoted as A) |  |  |  |  | 
3 | CCC[C@H]1C(=O)N[C@@H]([C@@H](C)CC)C(=O)N(C)CC(=O)N(C)[C@H]2C/C=C\CCN(C2=O)[C@@H](Cc2ccc(C(F)(F)F)cc2)C(=O)N(C)CC(=O)N[C@@H](CCc2ccc(C(F)(F)F)c(OC)c2)C(=O)N2CC3(CC3)C[C@H]2C(=O)NC2(CCC2)C(=O)N(C)[C@@H](CC(C)(C)C)C(=O)N(C)[C@H](C(=O)N(C)C)CC(=O)N1C [PP3412] | 4.3 | A (a compound having 10 or more and less than 20 is denoted as A) |  | B (a compound having 3 or more and less than 10 is denoted as B) | 0.037 |  |  |  | 
4 | CCC[C@H]1C(=O)N[C@@H]([C@@H](C)CC)C(=O)N2CCC[C@H]2C(=O)N(C)[C@H]2C/C(F)=C\CCN(C2=O)[C@@H](Cc2ccc(C)cc2)C(=O)N(C)CC(=O)N[C@@H](CCc2cc(F)c(C(F)(F)F)c(F)c2)C(=O)N2C[C@H](OCC)C[C@H]2C(=O)NC2(CCC2)C(=O)N(C)[C@@H](C2CCCC2)C(=O)N(C)[C@H](C(=O)N(C)C)CC(=O)N1C [PP3520] | 91.9 | B (a compound having 3 or more and less than 10 is denoted as B) |  | B (a compound having 3 or more and less than 10 is denoted as B) | 1.2 |  |  |  | 
5 | CCOC[C@H]1C(=O)N[C@@H]([C@@H](C)CC)C(=O)N2CCC[C@H]2C(=O)N(C)[C@H]2C/C=C\CCN(C2=O)[C@@H](CC2CCCCC2)C(=O)N(C)CC(=O)N[C@@H](CCc2ccc(C(F)(F)F)c(OC)c2)C(=O)N2C[C@@H](C)C[C@H]2C(=O)N(C)C2(CCC2)C(=O)N(C)[C@@H](C2CCCC2)C(=O)N(C)[C@H](C(=O)N(C)C)CC(=O)N1C [PP2375] | 172 | A (a compound having 10 or more and less than 20 is denoted as A) | 1.1 | B (a compound having 3 or more and less than 10 is denoted as B) |  |  |  |  | 
6 | CCO[C@@H]1C[C@H]2C(=O)NC3(CC(C)(C)C3)C(=O)N(C)[C@@H](C3CCCC3)C(=O)N(C)[C@H](C(=O)N(C)CC)CC(=O)N(C)[C@@H]([C@H](C)OC)C(=O)N[C@@H]([C@@H](C)CC)C(=O)N(C3CC3)CC(=O)N(C)[C@H]3C/C=C\CCN(C3=O)[C@@H](Cc3ccc(C(F)(F)F)cc3)C(=O)N(C)CC(=O)N[C@@H](CCc3ccc(C(F)(F)F)c(OC)c3)C(=O)N2C1 [PP3219] | 19.6 | A (a compound having 10 or more and less than 20 is denoted as A) |  | A (a compound having 10 or more and less than 20 is denoted as A) | 0.53 |  |  |  | 
7 | CCO[C@@H]1C[C@H]2C(=O)NC3(CC(C)(C)C3)C(=O)N(C)[C@@H](C3CCCC3)C(=O)N(C)[C@H](C(=O)N(CC)CC)CC(=O)N(C)[C@@H](COC)C(=O)N[C@@H]([C@@H](C)CC)C(=O)N(C)CC(=O)N(C)[C@H]3C/C=C\CCN(C3=O)[C@@H](Cc3ccc(C)cc3)C(=O)N(C)CC(=O)N[C@@H](CCc3cc(F)c(C(F)(F)F)c(F)c3)C(=O)N2C1 [PP2403] | 7.2 | A (a compound having 10 or more and less than 20 is denoted as A) | 0.22 | A (a compound having 10 or more and less than 20 is denoted as A) |  |  |  |  | 
8 | CC[C@H](C)[C@@H]1NC(=O)[C@H](CC)N(C)C(=O)C[C@@H](C(=O)N2CCOCC2)N(C)C(=O)[C@H](C2CCCC2)N(C)C(=O)C2(CCCC2)NC(=O)[C@@H]2CCCN2C(=O)[C@H](CCc2cc(F)c(C(F)(F)F)c(F)c2)NC(=O)CN(C)C(=O)[C@H](Cc2ccc(C(F)(F)F)cc2)N2C[C@H](C)[C@H](C)C[C@@H](C2=O)N(C)C(=O)CN(C)C1=O [PP1365] |  |  |  |  |  | 4.2 | A (a compound having 10 or more and less than 20 is denoted as A) | 0.13 | B (a compound having 3 or more and less than 10 is denoted as B)
9 | CCO[C@@H]1C[C@H]2C(=O)NC3(CCC3)C(=O)N(C)[C@@H](C3CCCC3)C(=O)N(C)[C@H](C(=O)N(C)C)CC(=O)N(C)[C@@H](CC3CC3)C(=O)N[C@@H]([C@@H](C)CC)C(=O)N(C)CC(=O)N(C)[C@H]3C/C=C\CCN(C3=O)[C@@H](Cc3ccc(C)cc3)C(=O)N(C)CC(=O)N[C@@H](CCc3ccc(Cl)c(Cl)c3)C(=O)N2C1 [PP1485] |  |  |  |  |  | 30.5 | A (a compound having 10 or more and less than 20 is denoted as A) | 0.28 | A (a compound having 10 or more and less than 20 is denoted as A)
10 | CCCOC[C@H]1C(=O)N[C@@H]([C@@H](C)CC)C(=O)N(C)CC(=O)N(C)[C@H]2C/C=C\CCN(C2=O)[C@@H](Cc2ccc(C)cc2)C(=O)N(C)CC(=O)N[C@@H](CCc2cc(F)c(C(F)(F)F)c(F)c2)C(=O)N2C[C@H](OCC)C[C@H]2C(=O)NC2(CCCC2)C(=O)N(C)[C@@H](C2CCCC2)C(=O)N(C)[C@H](C(=O)N2CCCC2)CC(=O)N1C [PP1401] |  |  |  |  |  | 34.4 | A (a compound having 10 or more and less than 20 is denoted as A) | 0.26 | A (a compound having 10 or more and less than 20 is denoted as A)
11 | CCO[C@@H]1C[C@H]2C(=O)NC3(CCC3)C(=O)N(C)[C@@H](C(CC)CC)C(=O)N(C)[C@H](C(=O)N3CCCC3)CC(=O)N(C)[C@@H](COC)C(=O)N[C@@H]([C@@H](C)CC)C(=O)N(C)CC(=O)N(C)[C@H]3C/C=C\CCN(C3=O)[C@@H](CC3CCC(F)(F)CC3)C(=O)N(C)CC(=O)N[C@@H](CCc3cc(F)c(C(F)(F)F)c(F)c3)C(=O)N2C1 [PP1440] |  |  |  |  |  | 69.7 | AA (a compound having 20 or more is denoted as AA) | 0.35 | A (a compound having 10 or more and less than 20 is denoted as A)
12 | CCC[C@H]1C(=O)N[C@@H]([C@@H](C)CC)C(=O)N(C2CC2)CC(=O)N(C)[C@H]2C/C=C\CCN(C2=O)[C@@H](Cc2ccc(C(F)(F)F)cc2)C(=O)N(C)CC(=O)N[C@@H](CCc2ccc(C(F)(F)F)c(OC)c2)C(=O)N2C[C@@H](C)C[C@H]2C(=O)N(C)C2(CCC2)C(=O)N(C)[C@@H](C2CCCC2)C(=O)N(C)[C@H](C(=O)N(C)C)CC(=O)N1C [PP2360] | 2.9 | A (a compound having 10 or more and less than 20 is denoted as A) | 0.16 | B (a compound having 3 or more and less than 10 is denoted as B) |  |  |  |  | 
13 | CCO[C@@H]1C[C@H]2C(=O)NC3(CCC3)C(=O)N(C)[C@@H](C3CCCC3)C(=O)N(C)[C@H](C(=O)N3CCOCC3)CC(=O)N(C)[C@@H](CC3CCCCC3)C(=O)N[C@@H]([C@@H](C)CC)C(=O)N(C)CC(=O)N(C)[C@H]3C/C=C\CCN(C3=O)[C@@H](Cc3ccc(C)cc3)C(=O)N(C)CC(=O)N[C@@H](CCc3cc(F)c(C(F)(F)F)c(F)c3)C(=O)N2C1 [PP1420] |  |  |  |  |  | 31.4 | A (a compound having 10 or more and less than 20 is denoted as A) | 0.35 | A (a compound having 10 or more and less than 20 is denoted as A)
14 | CCO[C@@H]1C[C@H]2C(=O)NC3(CC(C)(C)C3)C(=O)N(C)[C@@H](C3CCCC3)C(=O)N(C)[C@H](C(=O)N(C)C)CC(=O)N[C@@H](CC(C)C)C(=O)N[C@@H]([C@@H](C)CC)C(=O)N(C)CC(=O)N(C)[C@H]3C/C=C\CCN(C3=O)[C@@H](Cc3ccc(C(F)(F)F)cc3)C(=O)N(C)CC(=O)N[C@@H](CCc3ccc(C(F)(F)F)c(Cl)c3)C(=O)N2C1 [PP3452] | 14.5 | A (a compound having 10 or more and less than 20 is denoted as A) |  | A (a compound having 10 or more and less than 20 is denoted as A) | 0.19 |  |  |  | 
15 | CC[C@H](C)[C@@H]1NC(=O)[C@H](CC)N(C)C(=O)C[C@@H](C(=O)N(C)C)N(C)C(=O)[C@H](C2CCCC2)N(C)C(=O)C2(CCC2)NC(=O)[C@@H]2CC(F)(F)CN2C(=O)[C@H](CCc2cc(F)c(C(F)(F)F)c(F)c2)NC(=O)CN(C)C(=O)[C@H](Cc2ccc(C(F)(F)F)cc2)N2CC/C=C\C[C@@H](C2=O)N(C)C(=O)CN(C)C1=O [PP1129] |  |  |  |  |  | 10.2 | A (a compound having 10 or more and less than 20 is denoted as A) | 0.056 | B (a compound having 3 or more and less than 10 is denoted as B)

From patent publication EP4603105A1, “PHARMACEUTICAL COMPOSITION CONTAINING CYCLIC COMPOUND HAVING SELECTIVE KRAS INHIBITORY EFFECT AGAINST HRAS AND NRAS” (CHUGAI SEIYAKU KABUSHIKI KAISHA, priority 2022, dated 2024)
